Where “and” joins values, the source holds several entries; their conditions need not be identical. Equal values may be shown once.
Tests used:
Rattus norvegicus [1] = assay: Antiinflammatory activity in Wistar rat model of carrageenan-induced paw edema assessed as reduction in thickness of paw edema at 10 mg/kg, ip pretreated for 1 hr followed by carrageenan challenge and measured after 24 hrs (reference value: 0.83 +/-0.08 mm); type: functional; settings: time 25 hrs
Mus musculus [2] = assay: Analgesic activity in albino mouse assessed as protection at 10 mg/kg, ip measured after 30 mins by hot plate test (reference value: 0 %); type: functional; settings: 0.5 h
Rattus norvegicus [3] = assay: Antiinflammatory activity in Wistar rat model of carrageenan-induced paw edema assessed as reduction in thickness of paw edema at 10 mg/kg, ip pretreated for 1 hr followed by carrageenan challenge and measured after 4 hrs (reference value: 1.40 +/-0.10 mm); type: functional; settings: time 5 hrs
Mus musculus [4] = assay: Analgesic activity in albino mouse assessed reduction in acetic acid-induced abdominal writhing by measuring writing reflex at 10 mg/kg, ip pretreated for 1 hr followed by acetic acid challenge and measured starting 5 mins post acetic acid challenge for 10 mins (reference value: 42.4 +/- 1.02); type: functional; settings: time 75 min, 1.25 h
Mus musculus [5] = assay: Analgesic activity in albino mouse assessed as protection at 10 mg/kg, ip measured after 90 mins by hot plate test (reference value: 0 %); type: functional; settings: 1.5 h
Mus musculus [6] = assay: Analgesic activity in albino mouse assessed as forepaw licking/jumping latency time at 10 mg/kg, ip measured after 60 mins by hot plate test (reference value: 3.42 +/- 0.03 sec); type: functional; settings: 1 h
Rattus norvegicus [7] = assay: Anti-inflammatory activity in Wistar rat assessed as inhibition of carrageenan-induced paw edema at 10 mg/kg, ip pretreated for 1 hr followed by carrageenan challenge and measured after 4 hr relative to indomethacin; type: functional; settings: time 5 hrs
Mus musculus [8] = assay: Analgesic activity in albino mouse assessed as forepaw licking/jumping latency time at 10 mg/kg, ip measured after 90 mins by hot plate test (reference value: 2.72 +/- 0.01 sec); type: functional; settings: 1.5 h
Rattus norvegicus [9] = assay: Anti-inflammatory activity in Wistar rat assessed as inhibition of carrageenan-induced paw edema at 10 mg/kg, ip pretreated for 1 hr followed by carrageenan challenge and measured after 4 hr relative to control (reference value: 0.00 +/-0.4 %); type: functional; settings: time 5 hrs
[10] = Ulcerogenic activity in fasted albino mouse assessed as incidence of gastric ulceration at 10 mg/kg, po for 3 days (reference value: 0 %); type: toxicity, organism-based; settings: in vivo, 72 h, time 3 day
Mus musculus [11] = assay: Analgesic activity in albino mouse assessed as protection at 10 mg/kg, ip measured after 120 mins by hot plate test relative to indomethacin; type: functional; settings: 2 h
[12] = Ulcerogenic activity in fasted albino mouse assessed as average number of ulcers in gastric mucosa at 10 mg/kg, po for 3 days (reference value: 0); type: toxicity, organism-based; settings: in vivo, 72 h, time 3 day
Rattus norvegicus [13] = assay: Antiinflammatory activity in Wistar rat model of carrageenan-induced paw edema assessed as reduction in thickness of paw edema at 10 mg/kg, ip pretreated for 1 hr followed by carrageenan challenge and measured after 1 hr (reference value: 2.41 +/-0.05 mm); type: functional; settings: time 1 hr after carrageenan
Rattus norvegicus [14] = assay: Anti-inflammatory activity in Wistar rat assessed as inhibition of carrageenan-induced paw edema at 10 mg/kg, ip pretreated for 1 hr followed by carrageenan challenge and measured after 2 hr relative to control (reference value: 0.00 +/-0.03 %); type: functional; settings: time 3 hrs
Mus musculus [15] = assay: Analgesic activity in albino mouse assessed protection against acetic acid-induced abdominal writhing at 10 mg/kg, ip pretreated for 1 hr followed by acetic acid challenge and measured starting 5 mins post acetic acid challenge for 10 mins relative to control (reference value: 0 %); type: functional; settings: time 75 min, 1.25 h
Mus musculus [16] = assay: Analgesic activity in albino mouse assessed as forepaw licking/jumping latency time at 10 mg/kg, ip measured after 30 mins by hot plate test (reference value: 5.02 +/- 0.09 sec); type: functional; settings: 0.5 h
[17] = Ulcerogenic activity in fasted albino mouse assessed as average severity of ulcers in gastric mucosa at 10 mg/kg, po for 3 days (reference value: 0); type: toxicity, organism-based; settings: in vivo, 72 h, time 3 day
Rattus norvegicus [18] = assay: Anti-inflammatory activity in Wistar rat assessed as inhibition of carrageenan-induced paw edema at 10 mg/kg, ip pretreated for 1 hr followed by carrageenan challenge and measured after 1 hr relative to control (reference value: 0.00 +/-0.02 %); type: functional; settings: time 2 hrs
Rattus norvegicus [19] = assay: Anti-inflammatory activity in Wistar rat assessed as inhibition of carrageenan-induced paw edema at 10 mg/kg, ip pretreated for 1 hr followed by carrageenan challenge and measured after 3 hr relative to control (reference value: 0.00 +/-0.1 %); type: functional; settings: time 4 hrs
Rattus norvegicus [20] = assay: Anti-inflammatory activity in Wistar rat assessed as inhibition of carrageenan-induced paw edema at 10 mg/kg, ip pretreated for 1 hr followed by carrageenan challenge and measured after 24 hr relative to control (reference value: 0.00 +/-0.3 %); type: functional; settings: time 25 hrs
Mus musculus [21] = assay: Analgesic activity in albino mouse assessed as forepaw licking/jumping latency time at 10 mg/kg, ip measured after 120 mins by hot plate test (reference value: 2.62 +/- 0.06 sec); type: functional; settings: 2 h
Rattus norvegicus [22] = assay: Antiinflammatory activity in Wistar rat model of carrageenan-induced paw edema assessed as reduction in thickness of paw edema at 10 mg/kg, ip pretreated for 1 hr followed by carrageenan challenge and measured after 2 hrs (reference value: 2.06 +/-0.09 mm); type: functional; settings: time 3 hrs
Mus musculus [23] = assay: Analgesic activity in albino mouse assessed as protection at 10 mg/kg, ip measured after 60 mins by hot plate test (reference value: 0 %); type: functional; settings: 1 h
Mus musculus [24] = assay: Analgesic activity in albino mouse assessed as protection at 10 mg/kg, ip measured after 120 mins by hot plate test (reference value: 0 %); type: functional; settings: 2 h
Mus musculus [25] = assay: Analgesic activity in albino mouse assessed protection against acetic acid-induced abdominal writhing at 10 mg/kg, ip pretreated for 1 hr followed by acetic acid challenge and measured starting 5 mins post acetic acid challenge for 10 mins relative to indomethacin; type: functional; settings: time 75 min, 1.25 h
Rattus norvegicus [26] = assay: Antiinflammatory activity in Wistar rat model of carrageenan-induced paw edema assessed as reduction in thickness of paw edema at 10 mg/kg, ip pretreated for 1 hr followed by carrageenan challenge and measured after 3 hrs (reference value: 1.79 +/-0.07 mm); type: functional; settings: time 4 hrs
[27] = Ulcerogenic activity in fasted albino mouse assessed as ulcer index in gastric mucosa at 10 mg/kg, po for 3 days (reference value: 0); type: toxicity, organism-based; settings: in vivo, 72 h, time 3 day
Candida albicans = assay: Antifungal activity against Candida albicans incubated for 18 to 24 hrs by CLSI method; type: functional; settings: time 18-24 hrs
Pseudomonas aeruginosa = assay: Antibacterial activity against Pseudomonas aeruginosa ATCC 27853 incubated for 18 hrs by agar dilution assay; type: functional
Salmonella typhimurium = assay: Antibacterial activity against Salmonella typhimurium ATCC 19430 incubated for 18 hrs by agar dilution assay; type: functional, Salmonella enterica subsp. enterica serovar Typhimurium; settings: Salmonella enterica
Staphylococcus aureus = assay: Antibacterial activity against Staphylococcus aureus ATCC 25923 incubated for 18 hrs by agar dilution method; type: functional
Streptococcus pyogenes = assay: Antibacterial activity against Streptococcus pyogenes ATCC 19615 incubated for 18 hrs by agar dilution method; type: functional
Splenocyte [28] = assay: Immunomodulatory activity in Swiss albino mouse splenocytes assessed as cell viability at 10 uM by measuring stimulation index incubated for 72 hrs in presence of mitogenic stimulus phytohaemagglutinin by MTT assay (reference value: 1.00 +/- 0.24); type: functional
Peritoneal macrophage [29] = assay: Antiinflammatory activity in […] mouse Peritoneal macrophages assessed as reduction in LPS-induced NO production by measuring reduction in stimulation index at 10 uM preincubated for 1 hr followed by LPS stimulation measured after 24 hrs by Griess method (reference value: 27.31 +/- 2.56 uM); type: functional; settings: time 25 hrs
Splenocyte [30] = assay: Immunomodulatory activity in Swiss albino mouse splenocytes assessed as cell viability at 10 uM by measuring inhibition of stimulation index incubated for 72 hrs in presence of mitogenic stimulus phytohaemagglutinin by MTT assay relative to indomethacin; type: functional; settings: read-out: Activity
Peritoneal macrophage [31] = assay: Antiinflammatory activity in […] mouse Peritoneal macrophages assessed as inhibition of LPS-induced NO production at 10 uM preincubated for 1 hr followed by LPS stimulation measured after 24 hrs by Griess method relative to control (reference value: 0.0 %); type: functional; design: scale not given: the % may be the effect or the level left; settings: time 25 hrs

Row | Structure (SMILES) | Activity (Rattus norvegicus [1]) | Activity (Mus musculus [2]) | Activity (Rattus norvegicus [3]) | Activity (Mus musculus [4]) | Activity (Mus musculus [5]) | Time (Mus musculus [6]) | inhibition in vivo at 10 mg/kg (Rattus norvegicus [7]) | Time (Mus musculus [8]) | inhibition in vivo at 10 mg/kg (Rattus norvegicus [9]) | Activity [10] | Activity (Mus musculus [11]) | Activity [12] | Activity (Rattus norvegicus [13]) | inhibition in vivo at 10 mg/kg (Rattus norvegicus [14]) | Activity (Mus musculus [15]) | inhibition in vivo at 10 mg/kg (Rattus norvegicus [18]) | inhibition in vivo at 10 mg/kg (Rattus norvegicus [19]) | inhibition in vivo at 10 mg/kg (Rattus norvegicus [20]) | Activity (Rattus norvegicus [22]) | Activity (Rattus norvegicus [26]) | also measured
1 | CC(C)Cc1ccc(C(C)C(=O)O)cc1 (stereo not drawn) [IBUPROFEN] | 0.71 mm | 7.6% | 0.29 mm | 24.2 | 51.5% | 5.12 s | 91% | 4.12 s | 79% | 3.33% | 78.1% | 0.33 | 1.93 mm | 60% | 42.9% | 20% | 65% | 14% | 0.82 mm | 0.63 mm | Time (Mus musculus [16]): 5.4 s; Activity [17]: 0.67; Time (Mus musculus [21]): 3.48 s; Activity (Mus musculus [23]): 49.7%; Activity (Mus musculus [24]): 32.8%; Activity (Mus musculus [25]): 69.6%
2 | COc1ccc2c(c1)c(CC(=O)O)c(C)n2C(=O)c1ccc(Cl)cc1 [INDOMETHACIN] | 0.12 mm | 25.5% | 0.18 mm | 16.3 | 41.2% | 5.26 s | 100% | 3.84 s | 87% | 10% | 100% | 2 | 1.11 mm | 59% | 61.6% | 53% | 67% | 86% | 0.85 mm | 0.59 mm | Time (Mus musculus [16]): 6.3 s; Activity [17]: 1.67; Time (Mus musculus [21]): 3.72 s; Activity (Mus musculus [23]): 53.8%; Activity (Mus musculus [24]): 42%; UI [27]: 13.67; Activity (Mus musculus [25]): 100%
3 | COc1cc(/C=C/C(=O)/C=C(O)/C=C/c2ccc(OC(=O)[C@H](CC(C)C)NC(=O)OCc3ccccc3)c(OC)c2)ccc1OC(=O)[C@H](CC(C)C)NC(=O)OCc1ccccc1 | 0.82 mm |  | 1.25 mm |  |  |  | 13% |  | 11% |  |  |  | 1.59 mm | 10% |  | 34% | 10% | 1% | 1.85 mm | 1.61 mm | MIC (Candida albicans): 0.5 µg/mL and 0.579 µM; MIC (Pseudomonas aeruginosa): 0.125 µg/mL and 0.145 µM; MIC (Salmonella typhimurium): 0.25 µg/mL and 0.29 µM; MIC (Staphylococcus aureus): 0.125 µg/mL and 0.145 µM; MIC (Streptococcus pyogenes): 0.125 µg/mL and 0.145 µM; Activity_index (Splenocyte [28]): 2.83; Activity (Peritoneal macrophage [29]): 26.06 µM; viability at 10 µM (Splenocyte [30]): 42.8%; Activity (Peritoneal macrophage [31]): 4.57%
4 | COc1cc(/C=C/C(=O)/C=C(O)/C=C/c2ccc(OC(=O)[C@@H](NC(=O)OC(C)(C)C)C(C)C)c(OC)c2)ccc1OC(=O)[C@@H](NC(=O)OC(C)(C)C)C(C)C | 0.58 mm |  | 0.8 mm |  |  |  | 49% |  | 43% |  |  |  | 2.09 mm | 24% |  | 13% | 25% | 30% | 1.57 mm | 1.34 mm | MIC (Candida albicans): 1 µg/mL and 1.3 µM; MIC (Pseudomonas aeruginosa): 2 µg/mL and 2.61 µM; MIC (Salmonella typhimurium): 0.25 µg/mL and 0.326 µM; MIC (Staphylococcus aureus): 0.25 µg/mL and 0.326 µM; MIC (Streptococcus pyogenes): 2 µg/mL and 2.61 µM; Activity_index (Splenocyte [28]): 1.84; Activity (Peritoneal macrophage [29]): 19.29 µM; viability at 10 µM (Splenocyte [30]): 65.6%; Activity (Peritoneal macrophage [31]): 29.35%

Reference: ChEMBL document CHEMBL4765295, “Synthesis, pharmacological profile and 2D-QSAR studies of curcumin-amino acid conjugates as potential drug candidates” (Eur J Med Chem, 2020)
